For assay [1], the target named is Signal transducer and activator of transcription 3 (Homo sapiens, UniProt P40763). The experiment in a line: STAT3 blockade with qPCR and toxicity readouts – cell-based, STAT1 panel, cytotoxicity, late-stage follow-up, panel member STAT3 Inhibition (AID 2078). Background: Quantitative PCR measures a nucleic acid by following its amplification.
For assay [2], the target named is Signal transducer and activator of transcription 1-alpha/beta (Homo sapiens, UniProt P42224). The assay can be described thus: STAT3 blockade with qPCR and toxicity readouts – cell-based, STAT1 panel, cytotoxicity, late-stage follow-up, panel member STAT1 Inhibition (AID 2078).
For assay [3], the target named is T1, G-protein coupled receptor 35 (Homo sapiens, UniProt Q9HC97). The assay can be described thus: SAR analysis of Agonists of the GPR35 Receptor using an Image-Based Assay - Set 4. [Related pubchem assays (depositor defined):AID2013, AID2026]. Format: functional.
Assay [4] deals with T2, Cannabinoid receptor 1 (Homo sapiens, UniProt P21554). The experiment in a line: SAR analysis of agonists of the Cannabinoid Receptor 1 using an Image-Based Assay - Set 4. [Related pubchem assays (depositor defined):AID2013, AID2026]. Format: functional.
Assay [5] addresses T1, G-protein coupled receptor 35. The experiment in a line: SAR analysis of Antagonists of the GPR35 Receptor using an Image-Based Assay - Set 6. [Related pubchem assays (depositor defined):AID2013, AID2026]. Format: functional.
Assay [6] concerns the target T2, Cannabinoid receptor 1. The assay can be described thus: SAR analysis of antagonists of the Cannabinoid Receptor 1 using an Image-Based Assay - Set 4. [Related pubchem assays (depositor defined):AID2013, AID2026]. Type of assay: functional.
The target in assay [7] is G-protein coupled receptor 55 (Homo sapiens, UniProt Q9Y2T6). The experiment in a line: SAR Analysis of Selective Antagonists of GPR55 using an Image-Based Assay - Set 4. [Related pubchem assays (depositor defined):AID2013, AID2026]. Type of assay: functional.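 Also: antagonism of response to 5 µM lysophosphatidylinositol agonist.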
For assay [8], the target named is T3, Cannabinoid receptor 2 (Homo sapiens, UniProt P34972). The assay can be described thus: SAR analysis of antagonists of the Cannabinoid Receptor 2 using an Image-Based Assay - Set 3. [Related pubchem assays (depositor defined):AID2013, AID2026]. Type of assay: functional.
The target in assay [9] is T3, Cannabinoid receptor 2. The assay can be described thus: SAR analysis of agonists of the Cannabinoid Receptor 2 using an Image-Based Assay - Set 3. [Related pubchem assays (depositor defined):AID2013, AID2026]. Type of assay: functional.
In assay [10] the target is Kappa-type opioid receptor (Homo sapiens, UniProt P41145). The experiment in a line: SAR analysis of small molecule agonists of the kappa opioid receptor via a luminescent beta-arrestin assay - Set 3. [Related pubchem assays (depositor defined):AID1777, AID1785, AID1786, AID1966, AID2133, AID2136, AID2284, AID2500]. Type of assay: functional.
Assay [11] addresses T4, Tyrosine-protein phosphatase non-receptor type 22 (Homo sapiens, UniProt Q9Y2R2).
T4 sequence (Q9Y2R2 whole entry): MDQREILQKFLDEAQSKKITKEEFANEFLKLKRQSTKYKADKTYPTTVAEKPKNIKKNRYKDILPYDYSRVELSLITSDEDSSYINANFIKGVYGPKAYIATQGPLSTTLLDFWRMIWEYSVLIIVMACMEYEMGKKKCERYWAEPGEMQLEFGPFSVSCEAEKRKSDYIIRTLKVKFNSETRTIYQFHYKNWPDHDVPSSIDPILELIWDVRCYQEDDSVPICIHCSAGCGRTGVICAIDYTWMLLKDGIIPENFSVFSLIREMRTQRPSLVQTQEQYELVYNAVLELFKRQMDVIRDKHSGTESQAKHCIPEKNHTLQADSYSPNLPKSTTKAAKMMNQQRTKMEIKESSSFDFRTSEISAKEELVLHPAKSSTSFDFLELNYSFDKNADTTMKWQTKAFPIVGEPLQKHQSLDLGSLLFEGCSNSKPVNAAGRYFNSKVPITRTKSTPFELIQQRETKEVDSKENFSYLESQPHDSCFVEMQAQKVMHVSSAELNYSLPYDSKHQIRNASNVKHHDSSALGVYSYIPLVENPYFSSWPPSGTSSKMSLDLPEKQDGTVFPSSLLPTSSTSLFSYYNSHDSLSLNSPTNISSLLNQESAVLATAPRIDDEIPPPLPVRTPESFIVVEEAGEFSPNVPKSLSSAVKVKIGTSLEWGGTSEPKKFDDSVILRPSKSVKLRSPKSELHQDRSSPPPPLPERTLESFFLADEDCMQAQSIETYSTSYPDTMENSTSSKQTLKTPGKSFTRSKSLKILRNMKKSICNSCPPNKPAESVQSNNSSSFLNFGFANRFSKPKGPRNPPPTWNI
The experiment in a line: SAR LYP1 Fluorescent Assay using pCAP substrate for In Vitro dose response studies - Set 2. [Related pubchem assays (depositor defined):AID1779, AID1784, AID2135, AID449727]. Format: functional.

For assay [12], the target named is Tyrosine-protein phosphatase non-receptor type 12 (Homo sapiens, UniProt Q05209). The assay can be described thus: SAR Selectivity Analysis of small molecule inhibitors of PEST using pCAP in a fluorescence assay. [Related pubchem assays (depositor defined):AID1779, AID1784, AID2135]. Format: functional.
Assay [13] addresses T4, Tyrosine-protein phosphatase non-receptor type 22. The assay can be described thus: SAR LYP1 Fluorescent Assay using OMFP substrate for In Vitro dose response studies - Set 3. [Related pubchem assays (depositor defined):AID1779, AID1784, AID2140, AID2686]. Format: functional.
In assay [14] the target is T5, Tyrosine-protein phosphatase non-receptor type 7 (Homo sapiens, UniProt P35236).
T5 sequence (P35236 whole entry): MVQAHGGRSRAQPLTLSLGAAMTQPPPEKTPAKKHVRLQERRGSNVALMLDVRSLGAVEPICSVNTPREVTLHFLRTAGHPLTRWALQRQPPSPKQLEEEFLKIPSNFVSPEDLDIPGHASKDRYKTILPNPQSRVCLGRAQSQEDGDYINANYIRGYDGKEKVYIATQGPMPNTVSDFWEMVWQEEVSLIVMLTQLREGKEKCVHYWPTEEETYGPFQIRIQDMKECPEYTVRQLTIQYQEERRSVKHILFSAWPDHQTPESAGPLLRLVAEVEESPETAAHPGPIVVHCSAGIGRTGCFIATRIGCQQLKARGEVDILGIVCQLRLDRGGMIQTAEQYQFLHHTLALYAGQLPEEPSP
The assay can be described thus: inhibition of hematopoietic tyrosine phosphatase HePTP – biochemical, set 2, SAR follow-up (AID 449736). Type of assay: functional.

The target in assay [15] is T4, Tyrosine-protein phosphatase non-receptor type 22. The experiment in a line: inhibition of lymphoid tyrosine phosphatase LYP – biochemical, pCAP fluorogenic substrate, fluorescence, set 3, SAR follow-up (AID 449727). Format: functional.
The target is the same in assay [16]. The experiment in a line: PubChem AID 2135.
For assay [17] the target is unchanged. The experiment in a line: PubChem AID 2140.
Assay [18] shares this target. The assay can be described thus: SAR LYP1 Fluorescent Assay using OMFP substrate for In Vitro dose response studies - Set 2. [Related pubchem assays (depositor defined):AID1779, AID1784, AID2140, AID449726, AID488869]. Type of assay: functional.

The structures appear in SMILES notation. Calls of active or inactive are those of the source.

T3 sequence (P34972 whole entry): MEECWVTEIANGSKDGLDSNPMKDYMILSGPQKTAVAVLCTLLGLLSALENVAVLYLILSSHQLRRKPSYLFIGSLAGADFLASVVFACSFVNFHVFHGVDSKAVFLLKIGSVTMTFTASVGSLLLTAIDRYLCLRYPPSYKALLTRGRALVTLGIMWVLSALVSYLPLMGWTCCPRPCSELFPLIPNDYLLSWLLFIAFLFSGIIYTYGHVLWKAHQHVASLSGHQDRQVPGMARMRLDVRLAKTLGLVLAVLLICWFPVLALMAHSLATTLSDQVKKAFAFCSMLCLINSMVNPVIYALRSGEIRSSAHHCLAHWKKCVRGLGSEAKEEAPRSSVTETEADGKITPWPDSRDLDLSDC
T2 sequence (P21554 whole entry): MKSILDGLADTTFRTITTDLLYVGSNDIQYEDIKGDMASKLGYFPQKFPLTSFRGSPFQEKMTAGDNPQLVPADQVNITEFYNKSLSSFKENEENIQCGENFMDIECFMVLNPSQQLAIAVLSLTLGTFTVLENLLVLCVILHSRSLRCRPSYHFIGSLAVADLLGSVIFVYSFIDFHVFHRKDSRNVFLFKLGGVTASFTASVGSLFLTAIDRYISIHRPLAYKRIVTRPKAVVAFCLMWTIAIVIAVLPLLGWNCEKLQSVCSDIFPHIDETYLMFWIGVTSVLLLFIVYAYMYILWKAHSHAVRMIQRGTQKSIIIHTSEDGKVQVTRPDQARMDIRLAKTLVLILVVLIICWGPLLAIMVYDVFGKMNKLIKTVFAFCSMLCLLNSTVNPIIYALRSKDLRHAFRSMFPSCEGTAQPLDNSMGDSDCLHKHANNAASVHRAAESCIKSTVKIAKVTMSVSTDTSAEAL
T1 sequence (Q9HC97 whole entry): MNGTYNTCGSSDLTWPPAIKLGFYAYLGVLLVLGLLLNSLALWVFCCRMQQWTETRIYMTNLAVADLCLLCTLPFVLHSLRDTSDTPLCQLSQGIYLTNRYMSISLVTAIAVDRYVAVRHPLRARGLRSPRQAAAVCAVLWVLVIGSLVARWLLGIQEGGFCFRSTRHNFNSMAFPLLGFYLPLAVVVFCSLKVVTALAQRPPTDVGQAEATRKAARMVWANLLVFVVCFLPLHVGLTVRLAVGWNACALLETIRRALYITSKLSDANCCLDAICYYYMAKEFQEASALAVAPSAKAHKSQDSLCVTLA
Chain of Signal transducer and activator of transcription 1-alpha/beta (P42224 whole entry): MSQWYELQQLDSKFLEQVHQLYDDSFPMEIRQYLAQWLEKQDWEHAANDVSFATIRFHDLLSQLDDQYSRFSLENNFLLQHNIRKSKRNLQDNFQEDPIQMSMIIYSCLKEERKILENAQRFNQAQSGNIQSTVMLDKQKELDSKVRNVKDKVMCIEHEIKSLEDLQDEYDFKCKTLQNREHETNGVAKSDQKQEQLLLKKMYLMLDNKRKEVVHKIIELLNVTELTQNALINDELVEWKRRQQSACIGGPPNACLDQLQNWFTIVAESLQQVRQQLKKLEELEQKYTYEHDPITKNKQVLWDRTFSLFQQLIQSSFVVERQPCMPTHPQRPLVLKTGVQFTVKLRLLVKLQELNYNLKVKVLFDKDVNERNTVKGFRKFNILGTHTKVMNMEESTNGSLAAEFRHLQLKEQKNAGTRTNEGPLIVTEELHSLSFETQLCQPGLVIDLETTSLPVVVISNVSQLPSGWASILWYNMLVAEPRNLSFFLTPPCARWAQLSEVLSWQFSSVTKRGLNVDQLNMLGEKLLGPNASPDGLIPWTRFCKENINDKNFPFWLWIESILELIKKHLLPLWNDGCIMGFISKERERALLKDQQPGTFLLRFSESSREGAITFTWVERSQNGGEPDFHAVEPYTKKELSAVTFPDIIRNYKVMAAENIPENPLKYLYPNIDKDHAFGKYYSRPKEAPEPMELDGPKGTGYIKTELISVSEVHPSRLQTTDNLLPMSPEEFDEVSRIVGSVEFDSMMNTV
Chain of G-protein coupled receptor 55 (Q9Y2T6 whole entry): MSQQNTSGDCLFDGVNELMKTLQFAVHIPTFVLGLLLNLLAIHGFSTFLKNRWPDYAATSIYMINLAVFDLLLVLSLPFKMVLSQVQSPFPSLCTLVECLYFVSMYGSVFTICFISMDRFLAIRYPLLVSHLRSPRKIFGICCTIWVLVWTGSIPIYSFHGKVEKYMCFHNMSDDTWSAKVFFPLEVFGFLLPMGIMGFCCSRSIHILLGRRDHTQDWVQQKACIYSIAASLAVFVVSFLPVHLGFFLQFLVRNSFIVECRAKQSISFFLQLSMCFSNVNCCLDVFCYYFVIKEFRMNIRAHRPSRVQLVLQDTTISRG
Chain of Signal transducer and activator of transcription 3 (P40763 whole entry): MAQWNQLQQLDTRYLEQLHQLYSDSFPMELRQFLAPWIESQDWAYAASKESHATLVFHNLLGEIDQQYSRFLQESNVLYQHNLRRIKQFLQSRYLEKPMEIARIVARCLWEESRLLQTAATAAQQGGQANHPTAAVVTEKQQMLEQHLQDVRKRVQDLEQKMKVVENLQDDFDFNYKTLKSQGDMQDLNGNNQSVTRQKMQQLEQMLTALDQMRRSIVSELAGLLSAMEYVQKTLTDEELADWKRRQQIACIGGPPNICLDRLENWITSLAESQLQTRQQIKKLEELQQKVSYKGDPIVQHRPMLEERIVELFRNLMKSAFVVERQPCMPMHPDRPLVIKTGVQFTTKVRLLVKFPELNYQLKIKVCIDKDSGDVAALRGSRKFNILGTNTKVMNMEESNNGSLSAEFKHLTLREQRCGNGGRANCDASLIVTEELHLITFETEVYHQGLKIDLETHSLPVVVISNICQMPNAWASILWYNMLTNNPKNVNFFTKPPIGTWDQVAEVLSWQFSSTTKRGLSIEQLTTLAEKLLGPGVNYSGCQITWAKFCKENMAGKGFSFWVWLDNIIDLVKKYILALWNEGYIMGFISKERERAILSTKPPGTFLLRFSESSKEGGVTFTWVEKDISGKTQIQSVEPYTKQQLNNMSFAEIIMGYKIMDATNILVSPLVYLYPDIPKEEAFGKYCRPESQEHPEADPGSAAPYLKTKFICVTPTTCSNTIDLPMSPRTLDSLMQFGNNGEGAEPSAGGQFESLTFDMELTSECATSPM
Chain of Tyrosine-protein phosphatase non-receptor type 12 (Q05209 whole entry): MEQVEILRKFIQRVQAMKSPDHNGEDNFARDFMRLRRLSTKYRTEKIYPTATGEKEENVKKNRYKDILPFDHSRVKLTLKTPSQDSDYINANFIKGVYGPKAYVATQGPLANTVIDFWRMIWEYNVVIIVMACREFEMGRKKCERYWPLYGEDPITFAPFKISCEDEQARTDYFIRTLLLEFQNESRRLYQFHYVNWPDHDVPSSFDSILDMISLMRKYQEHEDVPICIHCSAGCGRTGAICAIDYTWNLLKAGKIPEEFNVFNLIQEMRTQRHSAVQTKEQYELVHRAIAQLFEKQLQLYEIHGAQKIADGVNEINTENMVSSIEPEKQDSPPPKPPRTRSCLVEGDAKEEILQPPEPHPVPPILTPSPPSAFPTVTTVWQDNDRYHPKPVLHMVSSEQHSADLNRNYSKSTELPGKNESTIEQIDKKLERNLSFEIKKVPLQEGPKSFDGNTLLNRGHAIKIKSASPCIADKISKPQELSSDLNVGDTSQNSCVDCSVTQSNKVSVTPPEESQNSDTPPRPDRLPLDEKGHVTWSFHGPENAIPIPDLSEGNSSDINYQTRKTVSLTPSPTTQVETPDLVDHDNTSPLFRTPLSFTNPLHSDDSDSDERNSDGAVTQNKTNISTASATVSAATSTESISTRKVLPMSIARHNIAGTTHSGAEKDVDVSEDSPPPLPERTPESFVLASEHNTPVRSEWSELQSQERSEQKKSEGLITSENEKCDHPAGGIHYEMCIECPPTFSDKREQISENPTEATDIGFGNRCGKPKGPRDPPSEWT
Chain of Kappa-type opioid receptor (P41145 whole entry): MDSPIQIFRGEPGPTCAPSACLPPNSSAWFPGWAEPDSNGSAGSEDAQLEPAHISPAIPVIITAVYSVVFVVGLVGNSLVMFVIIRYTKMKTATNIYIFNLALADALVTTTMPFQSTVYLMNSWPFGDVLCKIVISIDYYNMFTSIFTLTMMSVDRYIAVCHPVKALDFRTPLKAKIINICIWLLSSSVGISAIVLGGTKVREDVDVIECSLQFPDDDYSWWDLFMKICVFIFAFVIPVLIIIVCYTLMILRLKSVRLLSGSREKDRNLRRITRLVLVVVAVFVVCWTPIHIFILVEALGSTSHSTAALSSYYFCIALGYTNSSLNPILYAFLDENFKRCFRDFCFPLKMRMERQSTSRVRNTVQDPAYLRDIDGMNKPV

What is called IC50 is the concentration at which inhibition is half-maximal. `O=C(c1ccc(Cl)cc1)C1CCN(c2ncnc3sccc23)CC1`: the IC50 is 0.837 µM (active) in assay [1] and > 55.7 µM (inactive) in [2].
Usually EC50 stands for the midpoint of the concentration-response curve. On to `O=C(Cc1ccc2c(c1)OCO2)N1CCC(n2nc(-c3ccccc3)oc2=O)CC1`, for which the EC50 (in assay [3]; on Cannabinoid receptor 1 [4]; at Cannabinoid receptor 2 [9]) was > 32 µM (inactive) throughout. For the same molecule, the IC50 in [5] is > 32 µM (inactive); at Cannabinoid receptor 1 [6], 15.8 µM (inactive); in assay [7], > 32 µM (inactive); at Cannabinoid receptor 2 [8], > 32 µM (inactive).
Take `Clc1ccccc1Cn1c(SCc2ccccc2)nnc1-c1ccccn1`: the EC50 in [10] was > 20 µM (inactive).
As for `COC(=O)c1ccc(COc2ccc3cc(-c4ccc(F)cc4)c(=O)oc3c2)cc1`, the IC50 is > 100 µM (inactive) in assay [11]; > 100 µM (inactive) in assay [12]; > 100 µM (inactive) in assay [13]; 40 µM (active) in assay [14]; > 100 µM (inactive) in [15]; > 100 µM (inactive) in [16]. The IC50 in assay [17] and in [18] was > 100 µM (inactive) in each case.

The values above are taken from ChEMBL document CHEMBL1201862, “PubChem BioAssay data set” (2004).
